Molecules are shown by their SMILES. pIC50: −log10 of the molar value. Bounds are passed on as bounds.

In one data set the test system is human hepatocytes. Nature of the data set: HMS CLint (liver) hepatocyte metabolic stability, human. It is filed as in vitro ADME. The procedure: Experimental purpose: to test the metabolic stability of the test sample in human and rat liver cells.
• (1) test compound (10 mM), reference substance: 7-ethoxycoumarin (30 mM), 7-hydroxycoumarin (reference substance, 30 mM); • mouse hepatocytes with cell viability of 73.8%, supplier Cat No.: BioreclamationlVTM005052; • rat hepatocytes with cell viability of 78.3%, supplier Cat No.: BioreclamationlVTM00005-T; • canine hepatocytes with cell viability of 80.2%, supplier Cat No.: BioreclamationlVTM00205; • monkey liver cells with cell viability of 80.9%, supplier Cat No.: RILD HP—SXH-02M; • human hepatocytes with cell viability of 94.6%, supplier Cat No.: Bioreclamation IVTX008001. • (2) Buffer system:
Thawing medium: Williams' medium E containing 5% fetal bovine serum, 30% Percoll solution, and other auxiliary materials.
Incubation medium: Williams' medium E (without phenol red) containing 2 mM L-glutamine and 25 mM 4-(2-hydroxyethyl)-1-piperazineethanesulfonic acid.
Termination solution: acetonitrile containing 200 ng/mL tolbutamide and labetalol as internal standard. […]
The residual rates of the test compound and the control compound were determined using the following formula: […]
The elimination rate constant (k) of the test compound and the control compound in hepatocytes was calculated by plotting the logarithm of the residual rate against time. […]

The target in another data set is CYP2C19 (Homo sapiens (Human), UniProt P33261). Nature of the data set: Time-dependent inhibition (TDI) of CYP2C19 in human liver microsomes. It is filed as in vitro ADME. The procedure: The time-dependent inhibitory effect of the test compound on the activity of human liver microsomal cytochrome P450 isoenzyme CYP2C19 was determined.
The experiment was divided into two groups. In the first group, human liver microsomes (HLM) were used as the incubation system. The test articles with a series of concentrations were added to the incubation system, followed by the addition of a coenzyme factor (NADPH) solution. The preincubation was carried out at 37° C. for 30 minutes. After preincubation, a probe substrate solution was added thereto. After a certain period of incubation, the reaction was terminated. The amount of probe substrate metabolites generated in the incubation solution was determined, and the enzyme activity was calculated. In the second group, human liver microsomes (HLM) were used as the incubation system. The test articles with a series of concentrations were added to the incubation system, followed by the addition of potassium phosphate buffer. The preincubation was carried out at 37° C. for 30 minutes. After preincubation, a mixture of NADPH and the probe substrate was added thereto. After a certain period of incubation, the reaction was terminated. The amount of probe substrate metabolites generated in the incubation solution was determined, and the enzyme activity was calculated. […]
Then, 147.5 μL of human liver microsomal working solution was added to the reaction plate, and the reaction plate was placed on ice for use; at this time, 2.50 μL of the test compound (N=1) and the working solution (N=2) of the positive control inhibitor at various concentrations were added to the corresponding wells, and the corresponding organic solvent was added to the group without inhibitors (test compound or positive inhibitor); the reaction plate was incubated for 10 minutes at 37° C., and then 50.0 μL of NADPH solution or potassium phosphate buffer was added to reaction wells of the first or second group, respectively, to start the reaction; the reaction plate was pre-incubated at 37° C. for 30 minutes; 50.0 μL of the substrate solution or a mixture of NADPH and the substrate was added to the reaction wells of the first or second group, respectively, to start the reaction. 20 minutes later, 250 μL of precooled acetonitrile solution (containing internal standards of 200 ng/mL tolbutamide and labetalol) was added to terminate the reaction; the reaction plate was placed on a shaker and shaken for 10 minutes to mix uniformly; then, the plate was centrifuged for 20 minutes at 4° C. and 4000 rpm; 200 μL of the supernatant was added to 200 μL of water to dilute the sample; the plate was finally sealed and shaken for 10 minutes to mix uniformly; the sample was then analyzed by LC/MS/MS.
In general terms: Liver microsomes are vesicles of endoplasmic reticulum, rich in cytochrome P450 enzymes.

The mark [1] stands for this setting: 30 min preincubation with NADPH.
Setting [2] is: 30 min preincubation without NADPH.

Chain of CYP2C19 (P33261 whole entry): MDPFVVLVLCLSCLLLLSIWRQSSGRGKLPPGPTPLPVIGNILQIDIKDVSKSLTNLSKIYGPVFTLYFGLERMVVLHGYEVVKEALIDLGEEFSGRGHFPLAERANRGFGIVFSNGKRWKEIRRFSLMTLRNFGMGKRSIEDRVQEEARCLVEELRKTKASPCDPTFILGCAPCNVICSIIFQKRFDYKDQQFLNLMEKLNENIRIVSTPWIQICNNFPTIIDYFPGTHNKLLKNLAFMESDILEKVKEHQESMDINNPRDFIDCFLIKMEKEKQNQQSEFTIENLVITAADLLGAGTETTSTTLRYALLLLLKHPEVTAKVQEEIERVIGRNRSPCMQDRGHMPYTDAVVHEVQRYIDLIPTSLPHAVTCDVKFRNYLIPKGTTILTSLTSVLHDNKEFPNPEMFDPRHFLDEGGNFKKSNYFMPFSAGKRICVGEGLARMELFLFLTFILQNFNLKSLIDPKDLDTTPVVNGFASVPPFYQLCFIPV

With `C[C@]1(c2ccc(Cl)cn2)Oc2cccc(C3CCN(Cc4nc5sc(C(=O)O)cc5n4C[C@@H]4CCO4)CC3)c2O1` (single isomer, unassigned) [Compound 002], in the data set on human hepatocytes, the “HMS Human” value is less than 17.8 mL/min/kg. Also, the negative logarithm of the IC50 (pIC50) – broadly, −log10 of the IC50, conventionally taken in molar units – against CYP2C19 (setting [1]) is 4.53; against CYP2C19 (setting [2]), less than 4.30.
The matching figures for `C[C@@]1(c2ccc(Cl)cn2)Oc2cccc(N3CCN(Cc4nc5sc(C(=O)O)cc5n4C[C@H]4CCO4)CC3)c2O1` [Compound 003]: 19.4 mL/min/kg, less than 4.30 and less than 4.30.

Source of the values: US20240368178A1, “IMIDAZOCYCLIC COMPOUND AND APPLICATION THEREOF” (DONGBAO PURPLE STAR (HANGZHOU) BIOPHARMACEUTICAL CO., LTD., priority 2021, published 2024).
